“And” between values parts separate entries of the source, which are not always exact repeats. Equal values may be shown once.
Assays:
[1] = Pharmacokinetic study after intravenous administration in control and hyperuricemic rats (plasma, urine, kidney); conditions: for AUC0-4 / Kp, kidney / Kp at 4 h: creatinine; for Kp at 4 h / AUC(0-t) / concentration at 0.5 min / concentration at 30 min / concentration at 60 min: rat; for Kp at 4 h: kidney; for AUC(0-t) / concentration at 0.5 min / concentration at 30 min / concentration at 60 min: plasma; for concentration at 0.5 min / concentration at 30 min / concentration at 60 min: Plasma concentration;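 as to all read-outs here: Pentobarbital-anesthetized rats with cannulated bladder, jugular plasma, timed urine and saline kidney homogenate assayed by HPLC or LC-MS/MS, Kp as kidney over plasma level at 4 h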
Method: Rats were anesthetized with pentobarbital, and the bladder was cannulated with polyethylene tubing (inside diameter 0.5 mm, outside diameter 0.8 mm). […] Blood was drawn through the jugular vein, and plasma was obtained by centrifugation at 3,000 rpm for 10 min at 4°C. Urine was collected at the designated times. […] All samples were stored at -80°C until measurement.
If necessary, plasma and urine were diluted 10- to 100-fold and 10- to 10000-fold with saline, respectively, for high-performance liquid chromatography (HPLC) or liquid chromatography/tandem mass spectrometry (LC-MS/MS) measurement. […] Prepared samples were mixed for 1 min and centrifuged at 15,000 rpm for 5 min at 4°C. The resultant supernatant was used for LC-MS/MS analysis. The LC-MS/MS system consisted of a triple-quadrupole mass spectrometer (API 3200^TM, SCIEX, Foster City, CA) coupled with an ultrafast liquid chromatography system (LC-20AD, Shimadzu, Kyoto, Japan). […] For metformin, the mobile phase consisted of 0.1% formic acid and acetonitrile (30 : 70), and the flow rate was 0.4 mL/min.
The plasma concentration-time data were analyzed by non-compartmental analysis. The area under the plasma concentration-time curve (AUC0-4) was obtained by application of the trapezoidal rule from time 0 to 4 h. AUC from 0 to infinity (AUCinf) was estimated by extrapolation to infinity.

human MATE1 = target: T1, human MATE1 (Homo sapiens, UniProt Q96FL8); experiment: Uptake of [3H]MPP+ by MATE1-expressing HEK293 cells; type: cell-based; conditions: for MATE1-mediated uptake of MPP+, % of Control: after subtraction of uptake by mock cells
T1 construct: expressed in transfected cells; host or cells: HEK293 (HEK293/hMATE1; gift from Dr. Inoue, Tokyo University of Pharmacy and Life Science)
T1 sequence (Q96FL8 1-570): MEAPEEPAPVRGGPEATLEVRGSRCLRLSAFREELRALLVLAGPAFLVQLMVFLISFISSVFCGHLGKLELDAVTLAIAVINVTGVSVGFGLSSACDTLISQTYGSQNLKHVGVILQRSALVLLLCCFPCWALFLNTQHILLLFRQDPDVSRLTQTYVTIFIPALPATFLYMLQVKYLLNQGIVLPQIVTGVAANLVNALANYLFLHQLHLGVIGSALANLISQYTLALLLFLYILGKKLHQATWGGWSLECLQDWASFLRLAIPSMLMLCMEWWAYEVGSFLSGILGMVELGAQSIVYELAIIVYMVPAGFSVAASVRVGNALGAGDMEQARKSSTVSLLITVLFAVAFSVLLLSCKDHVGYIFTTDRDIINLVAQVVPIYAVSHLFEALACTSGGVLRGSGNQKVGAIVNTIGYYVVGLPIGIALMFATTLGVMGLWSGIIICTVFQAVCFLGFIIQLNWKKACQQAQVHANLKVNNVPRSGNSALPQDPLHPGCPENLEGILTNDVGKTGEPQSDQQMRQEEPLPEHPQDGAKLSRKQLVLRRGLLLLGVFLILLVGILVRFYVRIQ
Method: HEK293 cells transfected with human MATE1 (HEK293/hMATE1) and vector alone (mock) were gifts from Dr. Inoue (Tokyo University of Pharmacy and Life Science). […] HEK293/mock and HEK293/hMATE1 cells were plated at a density of 3.0 × 10^5 cells/well on 24-well plates and cultured for two days before an uptake assay. […] Radioactivity was measured with a liquid scintillation counter (Hitachi Aloka Medical, Tokyo, Japan). Part of the lysate was used for the determination of total protein amount with Bio-Rad protein assay dye reagent. Uptake of MPP^+ was expressed as a cell-to-medium ratio (μL/mg protein) obtained by dividing the uptake amount by the concentration of substrate in the TM. Percentages of control were calculated as the ratio of MATE1-mediated uptake of MPP^+ that obtained after subtraction of the uptake of MPP^+ by mock cells in compound treated groups to that in control group.

[2] = Plasma concentration of oxonic acid and adenine in hyperuricemic rats; type: in vivo, rat; conditions: hyperuricemic rats given oral oxonic acid […] and adenine 0.1 g/kg; detection limit 100 μM for oxonic acid
Mock cells = experiment: Uptake of MPP+ by mock cells (background for MATE1-expressing cells); type: cell-based; conditions: 100 µM; replicates and mean
Method: Dunnett's test was used for uptake study to compare the control group to groups treated with drugs.
Percentages of control were calculated as the ratio of MATE1-mediated uptake of MPP^+ that obtained after subtraction of the uptake of MPP^+ by mock cells in compound treated groups to that in control group.

[3] = Inulin clearance in control and hyperuricemic rats; type: in vivo, rat; conditions: Day 10, inulin 100 mg/kg iv
Method: Urine was collected at the designated times. […] All samples were stored at -80°C until measurement.
Inulin was measured by the anthrone method. After adding 500 mL concentrated sulfuric acid to 200 mL distilled water and cooling the solution to room temperature, 1.4 g anthrone (Sigma Aldrich) was added to it at 56°C to prepare the anthrone reagent. An aliquot of the reagent (400 μL) was added to 10 μL of plasma or urine suitably diluted with saline. The tube containing the sample was immersed in ice-cold water, shaken well and then allowed to react for 10 min at 56°C. The vial was immersed in ice-cold water to stop the reaction. The absorbance at 636 nm was measured with a spectrophotometer (UVmini1240, Shimadzu).

[4] = control rats, individual rats and mean
[5] = hyperuricemic rats, individual rats and mean

CN1CC(=O)NC1=N [Creatinine, creatinine]
Plasma concentration ([1]; control rats, 0.5 min after iv metformin 30 mg/kg or cephalexin 10 mg/kg (creatinine endogenous), individual rat): 19.0 µM and 21.0 µM
Urinary excretion (cumulative) ([1]; control rats, 10 min, individual rats and mean): 0.04 mg and 0.06 mg and 0.09 mg and 0.07 mg
Urinary excretion (cumulative) ([1]; control rats, 20 min, individual rats and mean): 0.10 mg and 0.12 mg and 0.16 mg and 0.13 mg
Urinary excretion (cumulative) ([1]; control rats, 30 min, individual rats and mean): 0.13 mg and 0.19 mg and 0.22 mg and 0.18 mg
Plasma concentration ([1]; control rats, 30 min after iv metformin 30 mg/kg or cephalexin 10 mg/kg (creatinine endogenous), individual rat): 20.1 µM and 20.4 µM
Urinary excretion (cumulative) ([1]; control rats, 60 min, individual rats and mean): 0.18 mg and 0.30 mg and 0.32 mg and 0.27 mg
Plasma concentration ([1]; control rats, 60 min after iv metformin 30 mg/kg or cephalexin 10 mg/kg (creatinine endogenous), individual rat): 18.9 µM and 19.0 µM
Urinary excretion (cumulative) ([1]; control rats, 120 min, individual rats and mean): 0.46 mg and 0.61 mg and 0.52 mg and 0.53 mg
Urinary excretion (cumulative) ([1]; control rats, 240 min, individual rats and mean): 0.98 mg and 1.44 mg and 1.32 mg and 1.25 mg
AUC0-4 [1, 4]: 5400 µM·min and 5463 µM·min
Kp, kidney [1, 4]: 10.4 and 11.3
AUC0-4 [1, 5]: 10502 µM·min and 8634 µM·min
Kp, kidney [1, 5]: 11.7 and 17.3
Plasma concentration ([1]; hyperuricemic rats, 0.5 min after iv metformin 30 mg/kg or cephalexin 10 mg/kg (creatinine endogenous), individual rat): 36.4 µM and 30.6 µM
Urinary excretion (cumulative) ([1]; hyperuricemic rats, 10 min, individual rats and mean): 0.12 mg (3×) and 0.11 mg
Urinary excretion (cumulative) ([1]; hyperuricemic rats, 20 min, individual rats and mean): 0.19 mg (3×) and 0.20 mg
Urinary excretion (cumulative) ([1]; hyperuricemic rats, 30 min, individual rats and mean): 0.26 mg (2×) and 0.28 mg and 0.25 mg
Plasma concentration ([1]; hyperuricemic rats, 30 min after iv metformin 30 mg/kg or cephalexin 10 mg/kg (creatinine endogenous), individual rat): 34.4 µM and 30.6 µM
Urinary excretion (cumulative) ([1]; hyperuricemic rats, 60 min, individual rats and mean): 0.42 mg and 0.39 mg and 0.44 mg and 0.43 mg
Plasma concentration ([1]; hyperuricemic rats, 60 min after iv metformin 30 mg/kg or cephalexin 10 mg/kg (creatinine endogenous), individual rat): 34.5 µM and 36.2 µM
Urinary excretion (cumulative) ([1]; hyperuricemic rats, 120 min, individual rats and mean): 0.69 mg and 0.58 mg and 0.73 mg and 0.76 mg
Urinary excretion (cumulative) ([1]; hyperuricemic rats, 240 min, individual rats and mean): 1.22 mg and 0.95 mg and 1.24 mg and 1.48 mg
Kp at 4 h ([1]; intravenous, control rats, individual rats and mean): 8.8
Kp at 4 h ([1]; intravenous, hyperuricemic rats, individual rats and mean): 12
AUC(0-t) ([1]; intravenous, AUC0-4, creatinine, control rats, individual rats and mean): 87.6 µM·h
AUC(0-t) ([1]; intravenous, AUC0-4, creatinine, hyperuricemic rats, individual rats and mean): 171 µM·h
concentration at 0.5 min ([1]; intravenous, control rats, 0.5 min after iv metformin 30 mg/kg or cephalexin 10 mg/kg (creatinine endogenous), individual rat): 17.7 µM
concentration at 0.5 min ([1]; intravenous, control rats, 0.5 min after iv metformin 30 mg/kg or cephalexin 10 mg/kg (creatinine endogenous), mean n=3): 19.2 µM
concentration at 30 min ([1]; intravenous, control rats, 30 min after iv metformin 30 mg/kg or cephalexin 10 mg/kg (creatinine endogenous), individual rat): 19.5 µM
concentration at 30 min ([1]; intravenous, control rats, 30 min after iv metformin 30 mg/kg or cephalexin 10 mg/kg (creatinine endogenous), mean n=3): 20 µM
concentration at 60 min ([1]; intravenous, control rats, 60 min after iv metformin 30 mg/kg or cephalexin 10 mg/kg (creatinine endogenous), individual rat): 22.9 µM
concentration at 60 min ([1]; intravenous, control rats, 60 min after iv metformin 30 mg/kg or cephalexin 10 mg/kg (creatinine endogenous), mean n=3): 20.3 µM
concentration at 0.5 min ([1]; intravenous, hyperuricemic rats, 0.5 min after iv metformin 30 mg/kg or cephalexin 10 mg/kg (creatinine endogenous), individual rat): 24.6 µM
concentration at 0.5 min ([1]; intravenous, hyperuricemic rats, 0.5 min after iv metformin 30 mg/kg or cephalexin 10 mg/kg (creatinine endogenous), mean n=3): 30.5 µM
concentration at 30 min ([1]; intravenous, hyperuricemic rats, 30 min after iv metformin 30 mg/kg or cephalexin 10 mg/kg (creatinine endogenous), individual rat): 25.9 µM
concentration at 30 min ([1]; intravenous, hyperuricemic rats, 30 min after iv metformin 30 mg/kg or cephalexin 10 mg/kg (creatinine endogenous), mean n=3): 30.3 µM
concentration at 60 min ([1]; intravenous, hyperuricemic rats, 60 min after iv metformin 30 mg/kg or cephalexin 10 mg/kg (creatinine endogenous), individual rat): 26.5 µM
concentration at 60 min ([1]; intravenous, hyperuricemic rats, 60 min after iv metformin 30 mg/kg or cephalexin 10 mg/kg (creatinine endogenous), mean n=3): 32.4 µM
AUC(0-t) ([1]; iv, AUC0-4, control rats, iv metformin 30 mg/kg or cephalexin 10 mg/kg, creatinine endogenous, mean n=3): 89.5 µM·h
AUC(0-t) ([1]; iv, AUC0-4, hyperuricemic rats, iv metformin 30 mg/kg or cephalexin 10 mg/kg, creatinine endogenous, mean n=3): 163 µM·h

Nc1ncnc2nc[nH]c12 [adenine]
MATE1-mediated uptake of MPP+, % of Control (human MATE1; Adenine 50 µM, replicates and mean): 68.3 % of Control and 107.0 % of Control
MATE1-mediated uptake of MPP+, % of Control (human MATE1; Adenine 500 µM, replicates and mean): 89.5 % of Control and 71.0 % of Control and 100.5 % of Control
MATE1-mediated uptake of MPP+, % of Control (human MATE1; Adenine 500 µM, replicates and mean, mean): 87.0 % of Control
Plasma concentration [2]: lower than 100 μM

CN/C(=N/CCSCc1nc[nH]c1C)NC#N [cimetidine]
MATE1-mediated uptake of MPP+, % of Control (human MATE1; 100 µM, replicates and mean, 100 µM): 5.0 % of Control and 14.6 % of Control
C/M ratio of MPP+ uptake, MATE1-expressing cells (human MATE1; 100 µM, replicates and mean): 36.0 µL/mg protein and 18.8 µL/mg protein
MATE1-mediated uptake of [3H]MPP+, percentage of control (human MATE1; positive control Mate1 inhibitor, concentration not given, HEK293/hMATE1): 8.2%
C/M ratio of MPP+ uptake, Mock cells (Mock cells): 9.40 µL/mg protein and 10.25 µL/mg protein and 9.69 µL/mg protein

O=c1[nH]c(=O)c2[nH]c(=O)[nH]c2[nH]1 [uric acid]
MATE1-mediated uptake of [3H]MPP+, percentage of control (human MATE1; 50 μM test compound, HEK293/hMATE1 minus mock, 0.25 nM [3H]MPP+, 0.5 min, 37°C): 102.0%
MATE1-mediated uptake of [3H]MPP+, percentage of control (human MATE1; 500 μM test compound, HEK293/hMATE1 minus mock, 0.25 nM [3H]MPP+, 0.5 min, 37°C): 100.7%
Inhibitory effect on MATE1-mediated MPP+ uptake (human MATE1; 50 and 500 μM of each): No inhibitory effects
MATE1-mediated uptake of MPP+, % of Control (human MATE1; Uric acid 50 µM, replicates and mean): 96.8 % of Control and 81.0 % of Control and 128.4 % of Control
MATE1-mediated uptake of MPP+, % of Control (human MATE1; Uric acid 50 µM, replicates and mean, mean): 102.0 % of Control
MATE1-mediated uptake of MPP+, % of Control (human MATE1; Uric acid 500 µM, replicates and mean): 87.8 % of Control and 117.9 % of Control and 96.4 % of Control
MATE1-mediated uptake of MPP+, % of Control (human MATE1; Uric acid 500 µM, replicates and mean, mean): 100.7 % of Control

inulin
Inulin Clearance ([3]; control rats, individual rat): 5.90 mL/min/kg and 7.51 mL/min/kg and 6.75 mL/min/kg
Inulin Clearance ([3]; control rats, mean): 6.72 mL/min/kg
Inulin Clearance ([3]; hyperuricemic rats, individual rat): 7.92 mL/min/kg and 4.99 mL/min/kg and 6.15 mL/min/kg and 4.14 mL/min/kg and 3.58 mL/min/kg
Inulin Clearance ([3]; hyperuricemic rats, mean): 5.36 mL/min/kg

Source: paper PMC6450621, “Changes of drug pharmacokinetics mediated by downregulation of kidney organic cation transporters Mate1 and Oct2 in a rat model of hyperuricemia” (PLoS ONE, 2019)
